This passage reports GI50 results from ChEMBL document CHEMBL5550190 (J Med Chem, 2024).

Bounds are passed on as bounds.

What all share (format): functional
In assay [1] the test system is A549. The assay can be described thus: Antitumor activity against human A549 cells incubated for 48 hrs.
In assay [2] the test system is HCT-116. The assay can be described thus: Antitumor activity against human HCT-116 cells incubated for 48 hrs.
Assay [3] deals with Hs-578T. Nature of the assay: Antitumor activity against human Hs-578T cells incubated for 48 hrs.
For assay [4], the system named is MDA-MB-231. Nature of the assay: Antitumor activity against human MDA-MB-231 cells incubated for 48 hrs by Celltiter Blue reagent based 2D microtiter assay. A general note: Alamar Blue is a resazurin reagent that responds to reducing activity.
The test system of assay [5] is MDA-MB-231. The assay can be described thus: Antitumor activity against human MDA-MB-231 cells incubated for 48 hrs in presence of 1.5% BSA by Celltiter Blue reagent based 2D microtiter assay.
Assay [6] deals with MDA-MB-231. Nature of the assay: Antitumor activity against human MDA-MB-231 cells incubated for 48 hrs by Celltiter Blue reagent based 3D microtiter assay.
Assay [7] relates to MDA-MB-231. Nature of the assay: Antitumor activity against human MDA-MB-231 cells incubated for 48 hrs in presence of 1.5% BSA by Celltiter Blue reagent based 3D microtiter assay.

On to `[2H]C([2H])([2H])Oc1cc(C(=O)Nc2cc3c(cc2Oc2cc(C)cc(C)c2)C(=O)N(C)[C@@H](CC(=O)N(C)C)C(=O)N3)c(Br)c(OC([2H])([2H])[2H])c1OC([2H])([2H])[2H]`, for which the GI50 in assay [1], in assay [2] and in assay [3] was less than 5 nM in each case.
For `COc1cc(C(=O)Nc2cc3c(cc2Oc2cc(C)cc(C)c2)C(=O)N(C)[C@@H](CC(=O)N(C)C)C(=O)N3)c(Br)c(OC)c1OC`, the GI50 in assay [1], in assay [2] and in assay [3] was less than 5 nM each time.
For the compound `[2H]C([2H])([2H])Oc1cc(C(=O)Nc2cc3c(cc2Oc2cc(C)cc(C)c2)C(=O)N[C@@H](CC(=O)N(CC)CC)C(=O)N3)c(Cl)c(OC([2H])([2H])[2H])c1OC([2H])([2H])[2H]`, the GI50 in assay [1] was 14.9 nM; in assay [2] it was 5.4 nM; in assay [3], 39.7 nM.
In the case of `[2H]C([2H])([2H])N(C(=O)C[C@@H]1NC(=O)c2cc(Oc3cc(C)cc(C)c3)c(NC(=O)c3cc(OC)c(OC)c(OC)c3Br)cc2NC1=O)C([2H])([2H])[2H]`, the GI50 in assay [1] was less than 5 nM; in assay [2] it was 7.1 nM; in assay [3], less than 5 nM; in assay [4] it was 9.33 nM; in assay [5] it was 9.43 nM; in assay [6], 9.96 nM. Further, the GI50 in assay [7] amounted to 22.5 nM.
As for `[2H]c1c(C)c([2H])c(Oc2cc3c(cc2NC(=O)c2cc(OC)c(OC)c(OC)c2Cl)NC(=O)[C@H](CC(=O)N(CC)CC)NC3=O)c([2H])c1C`, the GI50 is 207 nM in assay [1], 124 nM in assay [2] and 292 nM in assay [3].
As for `[2H]C([2H])([2H])Oc1cc(C(=O)Nc2cc3c(cc2Oc2cc(C)cc(C)c2)C(=O)N[C@@H](CC(=O)N(C)OC)C(=O)N3)c(Br)c(OC([2H])([2H])[2H])c1OC([2H])([2H])[2H]`, the GI50 in assay [1] was 4.9 nM; in assay [2] it was 7.8 nM; in assay [3] it was less than 5 nM; in assay [4], less than 1 nM; in assay [5], less than 1 nM; in assay [6], 251 nM. Besides, the GI50 in assay [7] turned out to be 90.3 nM.
`[2H]C([2H])([2H])N1C(=O)c2cc(Oc3cc(C)cc(C)c3)c(NC(=O)c3cc(OC)c(OC)c(OC)c3Br)cc2NC(=O)[C@@H]1CC(=O)N(CC)CC`: the GI50 in assay [1] is less than 5 nM; in assay [2], less than 5 nM; in assay [3] it was 20.9 nM.
As for `COc1cc(C(=O)Nc2cc3c(cc2Oc2cc(C)cc(C)c2)C(=O)N[C@@H](CC(=O)N(C)C)C(=O)N3)c(Br)c(OC)c1OC`, the GI50 in assay [1], in assay [2] and in assay [3] was less than 5 nM each time.
Regarding `[2H]C([2H])([2H])Oc1cc(C(=O)Nc2cc3c(cc2Oc2cc(C)cc(C)c2)C(=O)N[C@@H](CC(=O)N(C)C)C(=O)N3)c(Br)c(OC([2H])([2H])[2H])c1OC([2H])([2H])[2H]`, the GI50 was less than 5 nM in assay [1]; less than 5 nM in assay [2]; less than 5 nM in assay [3]; 0.23 nM in assay [4]; 0.79 nM in assay [5]; 25.3 nM in assay [6]. In addition, the GI50 in assay [7] came out at 0.75 nM.
For the compound `[2H]C([2H])([2H])C([2H])([2H])N(C(=O)C[C@@H]1NC(=O)c2cc(Oc3cc(C)cc(C)c3)c(NC(=O)c3cc(OC)c(OC)c(OC)c3Br)cc2NC1=O)C([2H])([2H])C([2H])([2H])[2H]`, the GI50 in assay [1] is less than 5 nM; in assay [2] it was less than 5 nM; in assay [3] it was 16.1 nM.
Consider `[2H]C([2H])([2H])c1cc(Oc2cc3c(cc2NC(=O)c2cc(OC)c(OC)c(OC)c2Cl)NC(=O)[C@H](CC(=O)N(CC)CC)NC3=O)cc(C([2H])([2H])[2H])c1`, for which the GI50 is 11.6 nM in assay [1], less than 5 nM in assay [2] and 30.1 nM in assay [3].
Take `[2H]C([2H])([2H])Oc1cc(C(=O)Nc2cc3c(cc2Oc2cc(C)cc(C)c2)C(=O)N[C@@H](CC(=O)N(C)O)C(=O)N3)c(Br)c(OC([2H])([2H])[2H])c1OC([2H])([2H])[2H]`: the GI50 was less than 5 nM in assay [1], 15.6 nM in assay [2] and 8.6 nM in assay [3].
In the case of `[2H]C([2H])([2H])Oc1cc(C(=O)Nc2cc3c(cc2Oc2cc(C)cc(C)c2)C(=O)N(C)[C@@H](CC(=O)N(C([2H])([2H])C([2H])([2H])[2H])C([2H])([2H])C([2H])([2H])[2H])C(=O)N3)c(Br)c(OC([2H])([2H])[2H])c1OC([2H])([2H])[2H]`, the GI50 in assay [1], in assay [2] and in assay [3] was less than 5 nM throughout.
In the case of `[2H]C([2H])([2H])N(C(=O)C[C@H]1C(=O)Nc2cc(NC(=O)c3cc(OC)c(OC)c(OC)c3Br)c(Oc3cc(C)cc(C)c3)cc2C(=O)N1C)C([2H])([2H])[2H]`, the GI50 in assay [1], in assay [2] and in assay [3] was less than 5 nM in each case.
For the compound `[2H]C([2H])([2H])Oc1c(OC)cc(C(=O)Nc2cc3c(cc2Oc2cc(C)cc(C)c2)C(=O)N[C@@H](CC(=O)N(CC)CC)C(=O)N3)c(Cl)c1OC`, the values for the GI50 in assay [1], in assay [2] and in assay [3] were 13.1 nM, less than 5 nM and 31.9 nM, respectively.
As for `[2H]C([2H])([2H])Oc1cc(C(=O)Nc2cc3c(cc2Oc2cc(C)cc(C)c2)C(=O)N[C@@H](CC(=O)N(C([2H])([2H])[2H])C([2H])([2H])[2H])C(=O)N3)c(Br)c(OC([2H])([2H])[2H])c1OC([2H])([2H])[2H]`, the 50% growth inhibitory concentration (GI50) in assay [1] is 6.1 nM; in assay [2] it was less than 5 nM; in assay [3], less than 5 nM.
In the case of `[2H]C([2H])([2H])Oc1cc(C(=O)Nc2cc3c(cc2Oc2cc(C)cc(C)c2)C(=O)N[C@@H](CC(=O)N(CC)CC)C(=O)N3)c(Br)c(OC([2H])([2H])[2H])c1OC([2H])([2H])[2H]`, the GI50 was less than 5 nM in assay [1], less than 5 nM in assay [2] and 8.1 nM in assay [3].
On to `[2H]c1c(Oc2cc3c(cc2NC(=O)c2cc(OC)c(OC)c(OC)c2Cl)NC(=O)[C@H](CC(=O)N(CC)CC)NC3=O)c([2H])c(C([2H])([2H])[2H])c([2H])c1C([2H])([2H])[2H]`, for which the GI50 in assay [1] is 19.1 nM; in assay [2], less than 5 nM; in assay [3], 27.7 nM.
Take `[2H]C([2H])([2H])Oc1cc(C(=O)Nc2cc3c(cc2Oc2cc(C)cc(C)c2)C(=O)N(C)[C@@H](CC(=O)N(C([2H])([2H])[2H])C([2H])([2H])[2H])C(=O)N3)c(Br)c(OC([2H])([2H])[2H])c1OC([2H])([2H])[2H]`: the GI50 in assay [1], in assay [2] and in assay [3] was less than 5 nM each time.
`[2H]C([2H])([2H])C([2H])([2H])N(C(=O)C[C@H]1C(=O)Nc2cc(NC(=O)c3cc(OC)c(OC)c(OC)c3Br)c(Oc3cc(C)cc(C)c3)cc2C(=O)N1C)C([2H])([2H])C([2H])([2H])[2H]`: the 50% growth inhibitory concentration (GI50) is less than 5 nM in assay [1], 15.6 nM in assay [2] and less than 5 nM in assay [3].
Take `[2H]C([2H])([2H])Oc1cc(C(=O)Nc2cc3c(cc2Oc2cc(C)cc(C)c2)C(=O)N[C@@H](CC(=O)N(C([2H])([2H])C([2H])([2H])[2H])C([2H])([2H])C([2H])([2H])[2H])C(=O)N3)c(Cl)c(OC([2H])([2H])[2H])c1OC([2H])([2H])[2H]`: the GI50 in assay [1] was 11.7 nM; in assay [2], less than 5 nM; in assay [3], 51.5 nM.

Usually GI50 stands for the concentration at which growth is held to half of that of the control.
